We go through 9 compounds from PubChem BioAssay (NCI).

The structures appear in SMILES notation.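 All cell lines were grown in 96-well plates and treated with compound for 48 hours. TGI is the concentration that stops growth completely.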 A value given as a limit tells only on which side of the number the result lay.

Common to all, as to assay: NCI anticancer screen, dose series, 48 h
For experiment [1], the system named is CCRF-CEM leukemia.
Experiment [2] relates to HT29 colon.
Experiment [3] deals with K-562 leukemia.
Experiment [4] relates to KM12 colon.
Experiment [5] concerns LOX IMVI melanoma.
Experiment [6] concerns M14 melanoma.
For experiment [7], the system named is NCI-H522 lung.
The subject of experiment [8] is NCI/ADR-RES ovarian.
In experiment [9] the test system is OVCAR-3 ovarian.
Experiment [10] relates to RPMI-8226 leukemia.
In experiment [11] the test system is SF-268 CNS.
For experiment [12], the system named is SK-MEL-28 melanoma.
Experiment [13] concerns SN12C renal.
Experiment [14] relates to SR leukemia.
Experiment [15] has as its system TK-10 renal.

Take `CC1=C(O)c2ccccc2C(=O)C1=O`: the TGI in experiment [1], in experiment [2], in [3], in experiment [4], in experiment [5] and in [6] was over 100 µM each time. Further, the TGI in experiment [7], in [8], in experiment [9], in [10], in experiment [11] and in experiment [12] was over 100 µM throughout. Moreover, the TGI in experiment [13], in [14] and in experiment [15] was over 100 µM each time.

`COC(C)(C)/C=C/c1[nH]c2ccccc2c1CC(=O)NCCc1cn(C(c2ccccc2)(c2ccccc2)c2ccccc2)cn1`: the TGI was over 100 µM in experiment [1]; over 21.5 µM in [2]; over 36 µM in [3]; over 87.3 µM in experiment [4]; over 51.3 µM in [5]; 17.3 µM in experiment [6]. Besides, the TGI in experiment [7] was 14.3 µM; in experiment [8], over 100 µM; in experiment [9], over 29.2 µM; in experiment [10], 6.77 µM; in [11] it was over 100 µM; in [12], 29.8 µM. Besides, the figures for the TGI in experiment [13], in experiment [14] and in experiment [15] were 19.2 µM, 5.8 µM and over 40.5 µM, respectively.

Turning to `CC(=O)c1ccc2c(c1)CC1(C2)Cc2cc3c(c(C(=O)O)c2C1)CCC3` (configuration not stated), the TGI in experiment [1], in [2], in [3], in [4], in experiment [5] and in experiment [7] was over 100 µM each time. The TGI in experiment [8], in experiment [9], in [10], in [11], in [12] and in experiment [13] was over 100 µM throughout. Besides, the TGI in experiment [14] and in [15] was over 100 µM throughout.

With `COC(=O)/C=C1/OC(c2ccccc2)=C(C)C1=O`, the TGI in [1] was over 100 µM; in experiment [2] it was 4.79 µM; in experiment [3] it was 15 µM; in [4], 27.1 µM; in experiment [5], 2.72 µM; in [6] it was 24.4 µM. Also, the TGI in experiment [7] stood at 57.5 µM; in [8], 65.5 µM; in experiment [9] it was 41.9 µM; in experiment [10], 5.65 µM; in [11], 35.5 µM; in [12], 31.1 µM. In addition, the TGI in [14] was 7.09 µM; in experiment [15] it was 29.1 µM.

On to `O=C(CSCC(=O)N/N=C\c1cccc([N+](=O)[O-])c1)N/N=C\c1cccc([N+](=O)[O-])c1`, for which the TGI in experiment [1], in [2], in [4], in [5], in [6] and in [7] was over 100 µM each time. Besides, the TGI in experiment [8] is 60 µM; in experiment [9], 84.1 µM; in [10] it was over 100 µM; in experiment [11] it was over 100 µM; in [12] it was over 100 µM; in experiment [13] it was over 100 µM. The TGI was over 100 µM in experiment [14] and 36.4 µM in experiment [15].

With `C=C1C(=O)O[C@H]2C1C[C@@H](OC(C)=O)/C(C)=C/CC[C@@]1(C)O[C@H]21` (some centres not stated), the TGI in experiment [1] came to 4.75 µM; in experiment [2], 41.5 µM; in experiment [3], 39.5 µM; in [4], 44.2 µM; in [5], 19.1 µM; in experiment [6], 16.1 µM. The TGI in [7] is 10.2 µM; in experiment [8], 32.3 µM; in [10], 13.6 µM; in [12], 24.9 µM; in experiment [13] it was 29.2 µM; in experiment [14] it was 20.1 µM. For the same compound, in [15], the TGI was found to be 17.4 µM.

In the case of `CCCCCc1c(CCCC)c(=O)[nH]c2nc(NC(=O)CCCC)ccc12`, the TGI in experiment [1], in experiment [3], in [4], in experiment [5], in [6] and in experiment [7] was over 100 µM in each case. For the same compound, the TGI in experiment [8], in [9], in experiment [10], in experiment [11], in experiment [12] and in experiment [13] was over 100 µM each time. Besides, the TGI in [14] and in experiment [15] was over 100 µM in each case.

As to `COC1CC(OC2C(C)OC(OC3C(C)OC(OC4C(C)OC(O[C@H]5CC[C@@]6(C)C(=CC[C@]7(O)[C@@H]6C[C@@H](OC(C)=O)[C@@]6(C)[C@]7(O)CC[C@@]6(O)C(C)=O)C5)CC4OC)CC3OC)CC2OC)OC(C)C1O` (some centres not stated), the TGI in [1], in experiment [2], in experiment [3], in experiment [4], in experiment [5] and in [6] was over 25 µM throughout. Besides, the TGI in experiment [7], in experiment [8], in experiment [9], in experiment [10], in experiment [11] and in experiment [13] was over 25 µM in each case. The TGI in [14] and in experiment [15] was over 25 µM in each case.

Regarding `CC(C)(Cl)C(Br)CCC(Br)(CCl)C(Cl)CBr` (configuration not stated), the TGI in experiment [1], in experiment [2], in experiment [3], in [4], in [5] and in experiment [6] was over 10 µM throughout. In addition, the TGI in experiment [7], in [8], in experiment [9], in experiment [10], in experiment [12] and in experiment [13] was over 10 µM each time. Moreover, the TGI in experiment [14] and in experiment [15] was over 10 µM each time.
